Biological target: T1, wildtype HIV-1 protease (Human immunodeficiency virus type 1 group M subtype B, UniProt P04585)
T1 construct: preincubated with the HIV-1 protease (wild type) enzyme in assay buffer; made in house; host or cells: Escherichia coli
Assay: Assay for Inhibition of Microbial Expressed HIV Protease (Pepcleav)
Type: biochemical
Method in brief: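 E. coli-expressed wildtype protease (20 pM final) preincubated with inhibitor 30 min at room temperature in 50 mM sodium acetate pH 5.5, 100 mM NaCl, 0.1% BSA. Reaction with 400 μM peptide substrate ran 1 h at 30° C. Inhibition derived from LC-MS/MS (MRM) product peak area.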

**Q.** Which IC50 does the source give for COC(=O)N[C@H](C(=O)Nc1ccccc1CC[C@@H]1CN[C@H](c2cc3cc(C)ccc3[nH]2)CO1)C(c1ccccc1)c1ccccc1 [Example 54, Nα-(methoxycarbonyl)-N-(2-{2-[(2R,5R)-5-(5-methyl-1H-indol-2-yl)morpholin-2-yl]ethyl}phenyl)-β-phenyl-L-phenylalaninamide] here?
**A.** Its IC50 is 143 nM.

**Q.** For COC(=O)N[C@H](C(=O)Nc1ccccc1CC[C@@H]1CN[C@H](c2cc3cc(C(F)(F)F)ccc3[nH]2)CO1)C(c1ccccc1)c1ccccc1 [Example 55], which IC50 is on record?
**A.** The IC50 was 152 nM.

**Q.** Which IC50 does the source give for COC(=O)N[C@H](C(=O)Nc1ccccc1CC[C@@H]1CN[C@H](c2cc3cc(OC)ccc3[nH]2)CO1)C(c1ccccc1)c1ccccc1 [Example 56, Nα-(methoxycarbonyl)-N-(2-{2-[(2R,5R)-5-(5-methoxy-1H-indol-2-yl)morpholin-2-yl]ethyl}phenyl)-β-phenyl-L-phenylalaninamide] here?
**A.** The IC50 was 98.3 nM.

**Q.** For COC(=O)N[C@H](C(=O)Nc1ccccc1CC[C@@H]1CN[C@H](c2cc3cc(Cl)ccc3[nH]2)CO1)C(c1ccccc1)c1ccccc1 [Example 57, N-(2-{2-[(2R,5R)-5-(5-chloro-1H-indol-2-yl)morpholin-2-yl]ethyl}phenyl)-Nα-(methoxycarbonyl)-β-phenyl-L-phenylalaninamide], which IC50 is on record?
**A.** Its IC50 is 70.2 nM.

**Q.** With COC(=O)N[C@H](C(=O)Nc1ccccc1CC[C@@H]1CN[C@H](c2cc3ccc(Cl)cc3[nH]2)CO1)C(c1ccccc1)c1ccccc1 [Example 58, N-(2-{2-[(2R,5R)-5-(6-chloro-1H-indol-2-yl)morpholin-2-yl]ethyl}phenyl)-Nα-(methoxycarbonyl)-β-phenyl-L-phenylalaninamide] as the compound, how does the IC50 read?
**A.** Its IC50 is 76.2 nM.

**Q.** COC(=O)N[C@H](C(=O)Nc1ccccc1CC[C@@H]1CN[C@H](c2cc3cccc(Cl)c3[nH]2)CO1)C(c1ccccc1)c1ccccc1 [Example 59, N-(2-{2-[(2R,5R)-5-(7-chloro-1H-indol-2-yl)morpholin-2-yl]ethyl}phenyl)-Nα-(methoxycarbonyl)-β-phenyl-L-phenylalaninamide] was tested. Which IC50 did it give?
**A.** Its IC50 is 96.4 nM.

**Q.** How did the IC50 turn out when COC(=O)N[C@H](C(=O)Nc1ccccc1CC[C@@H]1CN[C@H](c2cc3c(Cl)cccc3[nH]2)CO1)C(c1ccccc1)c1ccccc1 [Example 60, N-(2-{2-[(2R,5R)-5-(4-chloro-1H-indol-2-yl)morpholin-2-yl]ethyl}phenyl)-Nα-(methoxycarbonyl)-β-phenyl-L-phenylalaninamide] was run?
**A.** Its IC50 is 88.6 nM.

**Q.** Which IC50 does the source give for COC(=O)N[C@H](C(=O)Nc1ccccc1CC[C@@H]1CN[C@H](c2cc3cnccc3[nH]2)CO1)C(c1ccccc1)c1ccccc1 [Example 61, Nα-(methoxycarbonyl)-β-phenyl-N-(2-{2-[(2R,5R)-5-(1H-pyrrolo[3,2-c]pyridin-2-yl)morpholin-2-yl]ethyl}phenyl)-L-phenylalaninamide] here?
**A.** The IC50 was 550 nM.

**Q.** With COC(=O)N[C@H](C(=O)Nc1ccccc1CC[C@@H]1CN[C@H](c2cc3cccnc3[nH]2)CO1)C(c1ccccc1)c1ccccc1 [Example 62, Nα-(methoxycarbonyl)-β-phenyl-N-(2-{2-[(2R,5R)-5-(1H-pyrrolo[2,3-b]pyridin-2-yl)morpholin-2-yl]ethyl}phenyl)-L-phenylalaninamide] as the compound, how does the IC50 read?
**A.** The IC50 was 156 nM.

**Q.** How did the IC50 turn out when O=C(C[C@H](c1ccccc1)c1ccc(F)cc1)Nc1cncc(F)c1CC[C@@H]1CN[C@H](c2nc3cc(F)c(F)cc3[nH]2)CO1 [Example 70, (3R)—N-(4-{2-[(2R,5R)-5-(5,6-difluoro-1H-benzimidazol-2-yl)morpholin-2-yl]ethyl}-5-fluoropyridin-3-yl)-3-(4-fluorophenyl)-3-phenylpropanamide] was run?
**A.** The IC50 was 0.01 nM.

**Q.** For O=C(C[C@H](c1ccccc1)c1ccc(F)cc1)Nc1cncc(F)c1CC[C@@H]1CN[C@H](c2nc3ccccc3[nH]2)CO1 [Example 71, (3R)—N-(4-{2-[(2R,5R)-5-(1H-benzimidazol-2-yl)morpholin-2-yl]ethyl}-5-fluoropyridin-3-yl)-3-(4-fluorophenyl)-3-phenylpropanamide], which IC50 is on record?
**A.** Its IC50 is 0.01 nM.

**Q.** For COC(=O)N[C@H](C(=O)Nc1cncc(F)c1CC[C@@H]1CN[C@H](c2nc3ccccc3[nH]2)CO1)C(c1ccc(F)cc1)c1ccc(F)cc1 [Example 72, N-(4-{2-[(2R,5R)-5-(1H-benzimidazol-2-yl)morpholin-2-yl]ethyl}-5-fluoropyridin-3-yl)-4-fluoro-β-(4-fluorophenyl)-Nα-(methoxycarbonyl)-L-phenylalaninamide], which IC50 is on record?
**A.** The IC50 was 0.01 nM.

**Q.** With O=C(C[C@@H](c1ccc(F)cc1)c1ccncc1F)Nc1cccc(F)c1CC[C@@H]1CN[C@H](c2nc3ccccc3[nH]2)CO1 [Example 73, (3S)—N-(2-{2-[(2R,5R)-5-(1H-benzimidazol-2-yl)morpholin-2-yl]ethyl}-3-fluorophenyl)-3-(4-fluorophenyl)-3-(3-fluoropyridin-4-yl)propanamide] as the compound, how does the IC50 read?
**A.** Its IC50 is 0.01 nM.

**Q.** How did the IC50 turn out when N[C@H](C(=O)Nc1cncc(F)c1CC[C@@H]1CN[C@H](c2nc3cc(F)c(F)cc3[nH]2)CO1)C(c1ccc(F)cc1)c1ccc(F)cc1 [Example 75, N-(4-{2-[(2R,5R)-5-(5,6-difluoro-1H-benzimidazol-2-yl)morpholin-2-yl]ethyl}-5-fluoropyridin-3-yl)-4-fluoro-β-(4-fluorophenyl)-L-phenylalaninamide] was run?
**A.** The IC50 was 0.01 nM.

**Q.** Which IC50 does the source give for COC(=O)N[C@H](C(=O)Nc1cncc(F)c1CC[C@@H]1CN[C@H](c2nc3cc(F)c(F)cc3[nH]2)CO1)C(c1ccc(F)cc1)c1ccc(F)cc1 [Example 76, N-(4-{2-[(2R,5R)-5-(5,6-difluoro-1H-benzimidazol-2-yl)morpholin-2-yl]ethyl}-5-fluoropyridin-3-yl)-4-fluoro-β-(4-fluorophenyl)-Nα-(methoxycarbonyl)-L-phenylalaninamide] here?
**A.** The IC50 was 0.02 nM.

**Q.** Which IC50 does the source give for COC(=O)N[C@H](C(=O)Nc1ccccc1CC[C@@H]1CN[C@H](c2nnn[nH]2)CO1)C(c1ccccc1)c1ccccc1 [Example 77, Nα-(methoxycarbonyl)-β-phenyl-N-(2-{2-[(2R,5R)-5-(1H-tetrazol-5-yl)morpholin-2-yl]ethyl}phenyl)-L-phenylalaninamide] here?
**A.** The IC50 was 3.5 nM.

**Q.** Which IC50 does the source give for COC(=O)N[C@H](C(=O)Nc1ccccc1CC[C@@H]1CN[C@H](c2nnc(Cc3ccccc3)o2)CO1)C(c1ccccc1)c1ccccc1 [Example 78] here?
**A.** Its IC50 is 62 nM.

**Q.** For COC(=O)N[C@H](C(=O)Nc1ccccc1CC[C@@H]1CN[C@H](c2nnc(-c3ccc(F)cc3)o2)CO1)C(c1ccccc1)c1ccccc1 [Example 79], which IC50 is on record?
**A.** The IC50 was 59 nM.

**Q.** With COC(=O)N[C@H](C(=O)Nc1ccccc1CC[C@@H]1CN[C@H](c2nnc(C)o2)CO1)C(c1ccccc1)c1ccccc1 [Example 80] as the compound, how does the IC50 read?
**A.** Its IC50 is 220 nM.

**Q.** Which IC50 does the source give for COC(=O)N[C@H](C(=O)Nc1ccccc1CC[C@@H]1CN[C@H](c2nnc(Cc3ccccc3)[nH]2)CO1)C(c1ccccc1)c1ccccc1 [Example 81] here?
**A.** Its IC50 is 2.8 nM.

**Q.** COC(=O)N[C@H](C(=O)Nc1ccccc1CC[C@@H]1CN[C@H](c2nnco2)CO1)C(c1ccccc1)c1ccccc1 [Example 82] was tested. Which IC50 did it give?
**A.** Its IC50 is 280 nM.

**Q.** How did the IC50 turn out when COC(=O)N[C@H](C(=O)Nc1ccccc1CC[C@@H]1CN[C@H](c2csc(C)n2)CO1)C(c1ccccc1)c1ccccc1 [Example 83] was run?
**A.** The IC50 was 89 nM.

**Q.** How did the IC50 turn out when COC(=O)N[C@H](C(=O)Nc1ccccc1CC[C@@H]1CN[C@H](c2csc(Cc3ccccc3)n2)CO1)C(c1ccccc1)c1ccccc1 [Example 84] was run?
**A.** The IC50 was 150 nM.

**Q.** With COC(=O)N[C@H](C(=O)Nc1ccccc1CC[C@@H]1CN[C@H](c2nc3cc(Cl)c(Cl)cc3[nH]2)CO1)C(c1ccccc1)c1ccccc1 [Example 85] as the compound, how does the IC50 read?
**A.** Its IC50 is 0.4 nM.

**Q.** With COC(=O)N[C@H](C(=O)Nc1ccccc1CC[C@@H]1CN[C@H](c2ncc[nH]2)CO1)C(c1ccccc1)c1ccccc1 [Example 86] as the compound, how does the IC50 read?
**A.** Its IC50 is 1.8 nM.

**Q.** COC(=O)N[C@H](C(=O)Nc1ccccc1CC[C@@H]1CN[C@H](c2ncc[nH]2)[C@@H](CSc2nnc(-c3ccncc3)o2)O1)C(c1ccccc1)c1ccccc1 [Example 87, N-(2-{2-[(2R,5R)-(1H-imidazol-2-yl)-6-{[(5-pyridin 4-yl-1,3,4-oxadiazol-2-yl)sulfanyl]methyl}morpholin-2-yl]ethyl}phenyl)-Nalpha-(methoxycarbonyl)-β-phenyl-L-phenylalaninamide] was tested. Which IC50 did it give?
**A.** Its IC50 is 0.6 nM.

**Q.** With COC(=O)N[C@H](C(=O)Nc1ccccc1CC[C@@H]1CN[C@H](c2cn(C)c(=O)[nH]2)CO1)C(c1ccccc1)c1ccccc1 [Example 88] as the compound, how does the IC50 read?
**A.** The IC50 was 310 nM.

**Q.** Which IC50 does the source give for COC(=O)N[C@H](C(=O)Nc1ccccc1CC[C@@H]1CN[C@H](c2nc3ccc(O)nc3[nH]2)CO1)C(c1ccccc1)c1ccccc1 [Example 89] here?
**A.** Its IC50 is 150 nM.

**Q.** With COC(=O)N[C@H](C(=O)Nc1ccccc1CC[C@@H]1CN[C@H](c2[nH]c3ccccc3c2C=[N+](C)C)CO1)C(c1ccccc1)c1ccccc1 [Example 90, N-[(2-{(3R,6R)-6-[2-(2-{[N-(methoxycarbonyl)-β-phenyl-L-phenylalanyl]amino}phenyl)ethyl]morpholin-3-yl}-1H-indol-3-yl)methylidene]-N-methylmethanaminium] as the compound, how does the IC50 read?
**A.** Its IC50 is 68 nM.

**Q.** Which IC50 does the source give for Cc1cc2nc([C@@H]3CO[C@H](CCc4c(F)cncc4NC(=O)[C@@H](N)C(c4ccc(F)cc4)c4ccc(F)cc4)CN3)[nH]c2cc1C [Example 92, N-(4-{2-[(2R,5R)-5-(5,6-dimethyl-1H-benzimidazol 2-yl)morpholin-2-yl]ethyl}-5-fluoropyridin-3-yl)-4-fluoro-β-(4-fluorophenyl)-L-phenylalaninamide] here?
**A.** The IC50 was 0.06 nM.

**Q.** With N[C@H](C(=O)Nc1cncc(F)c1CC[C@@H]1CN[C@H](c2nc3cc(F)c(F)cc3[nH]2)CO1)C(c1ccc(F)cc1)c1ccc(F)cc1 [Example 93, N-(4-{2-[(2R,5R)-5-(5,6-difluoro-1H-benzimidazol-2-yl)morpholin-2-yl]ethyl}-5-fluoropyridin-3-yl)-4-fluoro-β-(4-fluorophenyl)-L-phenylalaninamide] as the compound, how does the IC50 read?
**A.** The IC50 was 0.02 nM.

**Q.** Which IC50 does the source give for N[C@H](C(=O)Nc1cccc(F)c1OC[C@@H]1CN[C@H](c2nc3ccccc3[nH]2)CO1)C(c1ccccc1)c1ccccc1 [Example 94, N-(2-{[(2S,5R)-5-(1H-benzimidazol-2-yl)morpholin-2-yl]methoxy}-3-fluorophenyl)-β-phenyl-L-phenylalaninamide] here?
**A.** Its IC50 is 0.22 nM.

Source: US9737545B2 (MERCK SHARP & DOHME CORP., priority 2013, dated 2017)
